Laboratory results: the NIST ThermoML archive (doi:10.1016/j.fluid.2010.04.018)
Numbers after ± are expanded uncertainties.

Assay: xn = mol fraction of the nth substance listed
Settings: Liquid, Vibrating tube method

C1CCOC1 [tetrahydrofuran] + O=C=O
Settings | mass density [kg/m3]
298.15 K, x2 = 0.388 | 906.5 ± 0.2
298.15 K, x2 = 0.47 | 910.1 ± 0.2
298.15 K, x2 = 0.588 | 912.1 ± 0.2
298.15 K, x2 = 0.703 | 906.9 ± 0.3
298.15 K, x2 = 0.828 | 883.3 ± 0.3
298.15 K, x2 = 0.941 | 819.3 ± 1.5
298.15 K, x2 = 0.983 | 763.3 ± 0.5
313.15 K, x2 = 0.301 | 879.8 ± 0.2
313.15 K, x2 = 0.428 | 883.6 ± 0.2
313.15 K, x2 = 0.542 | 883 ± 0.2
313.15 K, x2 = 0.665 | 873.1 ± 0.4
313.15 K, x2 = 0.788 | 842.6 ± 0.8
313.15 K, x2 = 0.881 | 787.7 ± 1.6
313.15 K, x2 = 0.921 | 737.7 ± 3
313.15 K, x2 = 0.938 | 699.9 ± 4.5
